From ChEMBL document CHEMBL1201862, “PubChem BioAssay data set” (2004) come the findings set out here.

Molecules are shown by their SMILES.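 Exposure lasted 48 hours, with cells grown in 96-well plates and compounds tested at five concentrations. GI50 is the concentration that inhibits growth by half.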 The source made the active and inactive calls. Cut-off read from the data, not from the text of the source: active = GI50 up to about 1.1 µM and inactive = higher. A value given as a limit tells only on which side of the number the result lay.

Some test systems named below: ACHN; BT-549; CAKI-1; COLO 205; HCC 2998; HCT-15; LOX IMVI; MCF7; NCI-H226; NCI-H522; NCI/ADR-RES; OVCAR-8; PC-3; RXF 393; SF-268; SNB-19; SNB-75; SR; T47D; UACC-257.
Experiment in all cases: NCI anticancer screen, dose series, 48 h

On to `c1ccc(-c2c(-c3[nH]c4ccccc4c3-c3ccccc3)[nH]c3ccccc23)cc1`, for which the GI50 is 3.33 µM (inactive) with ACHN; 4.56 µM (inactive) in the assay on BT-549; 3.33 µM (inactive) with CAKI-1; 1.91 µM (inactive) with COLO 205; 1.82 µM (inactive) in the assay on HCC 2998; 4.32 µM in the assay with HCT-15. Also, the GI50 with LOX IMVI was 1.92 µM (inactive); with MCF7 it was 3.33 µM (inactive); in the assay with NCI-H226, 11.6 µM (inactive); in the assay on NCI-H522, 3.18 µM (inactive); in the assay with NCI/ADR-RES it was 3.72 µM (inactive); with OVCAR-8, 4.29 µM (inactive). The GI50 with PC-3 was 3.6 µM (inactive); in the assay with RXF 393, 1.82 µM (inactive); in the assay on SF-268 it was 6.47 µM (inactive); with SNB-19 it was 6.5 µM (inactive); in the assay on SNB-75, 4.15 µM (inactive); with SR it was 2.74 µM (inactive). Besides, the GI50 with T47D is 2.53 µM (inactive); in the assay on UACC-257, 12.3 µM (inactive).
With `COc1ccc(Nc2nc3ccccc3nc2C(=O)O)cc1OC`, the GI50 in the assay on ACHN was 44.8 µM (inactive); in the assay with BT-549, 52.7 µM (inactive); with CAKI-1, 29.6 µM (inactive); in the assay on COLO 205, > 100 µM (inactive); in the assay on HCC 2998, 71.6 µM (inactive); in the assay on HCT-15 it was 50.7 µM. Moreover, the GI50 in the assay with LOX IMVI was 99.8 µM (inactive); in the assay with MCF7, 40.3 µM (inactive); with NCI-H226, 57 µM (inactive); in the assay with NCI-H522 it was > 100 µM (inactive); with NCI/ADR-RES, 35.2 µM (inactive); in the assay on OVCAR-8, > 100 µM (inactive). The GI50 is > 100 µM (inactive) in the assay with PC-3; 74.1 µM (inactive) in the assay on RXF 393; 41 µM (inactive) in the assay with SF-268; 73.1 µM (inactive) with SNB-19; 69.2 µM (inactive) in the assay on SNB-75; > 100 µM (inactive) in the assay with SR. Further, the GI50 in the assay with T47D is 33.8 µM (inactive); in the assay with UACC-257 it was 98.2 µM (inactive).
Regarding `O=C(O)c1ccccc1CC1Cc2ccc3c(c2C1=O)CCC3` (stereo not given), the GI50 in the assay with ACHN is > 100 µM (inactive); in the assay on BT-549 it was > 100 µM (inactive); in the assay on CAKI-1, > 100 µM (inactive); in the assay with COLO 205, > 100 µM (inactive); in the assay on HCC 2998, > 100 µM (inactive); with HCT-15, over 100 µM. For the same molecule, the GI50 in the assay with LOX IMVI, in the assay on MCF7, in the assay on NCI-H226, in the assay with NCI-H522, with NCI/ADR-RES and in the assay on OVCAR-8 was > 100 µM (inactive) in each case. In addition, the GI50 in the assay on PC-3 was > 100 µM (inactive); in the assay with RXF 393 it was > 100 µM (inactive); with SF-268, > 100 µM (inactive); in the assay with SNB-19, > 100 µM (inactive); with SNB-75, 87.1 µM (inactive); in the assay on SR, > 100 µM (inactive). Besides, the GI50 in the assay with T47D and in the assay with UACC-257 was > 100 µM (inactive) in each case.
For `O=C(CC(=O)Nc1ccccc1Cl)NNC(c1cc(/N=N/c2ccc(Br)cc2)ccc1O)P(O)O` (stereo not given), the GI50 with ACHN was 0.813 µM (active); in the assay with BT-549, 2.33 µM (inactive); in the assay with CAKI-1, 1.36 µM (inactive); in the assay with COLO 205, 3.89 µM (inactive); in the assay with HCC 2998, 3.8 µM (inactive); in the assay on HCT-15, 0.594 µM. Besides, the GI50 with LOX IMVI is 1.07 µM (active); with MCF7 it was 0.791 µM (active); in the assay on NCI-H226 it was 1.22 µM (inactive); in the assay with NCI-H522 it was 2.97 µM (inactive); in the assay on NCI/ADR-RES, 1.07 µM (active); in the assay with OVCAR-8, 0.525 µM (active). Besides, the GI50 with PC-3 is 0.521 µM (active); with RXF 393, 1.34 µM (inactive); in the assay with SF-268 it was 0.679 µM (active); with SNB-19, 4.1 µM (inactive); with SNB-75 it was 1.62 µM (inactive); in the assay on SR, 0.766 µM (active). Also, the GI50 in the assay on T47D was 2.12 µM (inactive); in the assay with UACC-257, 3.2 µM (inactive).
Take `O=c1c(Sc2ncccn2)c(Sc2ncccn2)cnn1CCl`: the GI50 in the assay with ACHN is 2.21 µM (inactive); in the assay on BT-549, 10.2 µM (inactive); in the assay with CAKI-1, 1.98 µM (inactive); with COLO 205, 1.76 µM (inactive); in the assay on HCC 2998, 10.8 µM (inactive); in the assay on HCT-15, 3.02 µM. Further, the GI50 is 2.01 µM (inactive) in the assay with LOX IMVI; 2.88 µM (inactive) in the assay on MCF7; 28.1 µM (inactive) in the assay with NCI-H226; 0.665 µM (active) with NCI-H522; 4.97 µM (inactive) with NCI/ADR-RES; 2.08 µM (inactive) in the assay on OVCAR-8. In addition, the GI50 with PC-3 was 2.48 µM (inactive); in the assay on RXF 393 it was 1.5 µM (inactive); with SF-268, 2.99 µM (inactive); in the assay on SNB-19, 17 µM (inactive); with SNB-75, 16.4 µM (inactive); with SR, 2.79 µM (inactive). Also, the GI50 is 3.23 µM (inactive) in the assay on T47D and 2.17 µM (inactive) in the assay on UACC-257.
Turning to `COc1ccc2cc(C(C)C(=O)N3CCOC3=O)ccc2c1` (stereo not given), the GI50 is > 100 µM (inactive) in the assay on ACHN; > 100 µM (inactive) in the assay on BT-549; > 100 µM (inactive) with CAKI-1; > 100 µM (inactive) in the assay on COLO 205; > 100 µM (inactive) with HCC 2998; over 100 µM in the assay with HCT-15. Moreover, the GI50 with LOX IMVI, in the assay on MCF7, in the assay on NCI-H226, in the assay on NCI-H522, in the assay with NCI/ADR-RES and in the assay on OVCAR-8 was > 100 µM (inactive) throughout. Also, the GI50 in the assay with PC-3 was > 100 µM (inactive); in the assay on RXF 393, > 100 µM (inactive); in the assay with SF-268, > 100 µM (inactive); with SNB-19 it was > 100 µM (inactive); in the assay on SNB-75, 44.7 µM (inactive); in the assay with SR it was > 100 µM (inactive). Moreover, the GI50 in the assay on T47D and with UACC-257 was > 100 µM (inactive) in each case.
With `C=CC(C)(C)c1cc([C@@H]2COc3cc(O)ccc3C2=O)c(O)c(O)c1OC`, the GI50 in the assay with ACHN was 17.6 µM (inactive); in the assay on BT-549, 18 µM (inactive); in the assay on CAKI-1, 13.2 µM (inactive); in the assay with COLO 205, 26.7 µM (inactive); in the assay with HCC 2998, 61.8 µM (inactive); in the assay with HCT-15, 16.5 µM. For the same molecule, the GI50 in the assay with LOX IMVI was 16.2 µM (inactive); in the assay with MCF7, 17.4 µM (inactive); with NCI-H226, 39.3 µM (inactive); with NCI-H522, 17 µM (inactive); in the assay on NCI/ADR-RES, 24.8 µM (inactive); with OVCAR-8, 16.4 µM (inactive). The GI50 in the assay with PC-3 was 18.7 µM (inactive); in the assay on RXF 393, 4.85 µM (inactive); in the assay on SF-268 it was 18.2 µM (inactive); with SNB-19 it was 23.5 µM (inactive); with SNB-75, 27.4 µM (inactive); in the assay with SR, 22.3 µM (inactive). In addition, the GI50 with T47D was 25.4 µM (inactive); with UACC-257 it was 61.7 µM (inactive).
With `COc1cc(I)c2c3c1OC1C34CCN(C)C(C2)C4=CC(I)C1(OC)OC` (stereo not given), the GI50 with ACHN was 27 µM (inactive); in the assay with BT-549, 23.9 µM (inactive); in the assay on CAKI-1, 22.4 µM (inactive); in the assay with COLO 205 it was 19.4 µM (inactive); in the assay with HCC 2998 it was 15.3 µM (inactive); in the assay on HCT-15, 25.5 µM. In addition, the GI50 in the assay on LOX IMVI was 19.6 µM (inactive); in the assay on MCF7, 20.7 µM (inactive); in the assay on NCI-H226 it was 22.6 µM (inactive); in the assay on NCI-H522, 21.2 µM (inactive); in the assay on NCI/ADR-RES, 28.2 µM (inactive); with OVCAR-8, 20.1 µM (inactive). Moreover, the GI50 in the assay with PC-3 is 24.4 µM (inactive); in the assay on RXF 393, 16.3 µM (inactive); in the assay with SF-268, 25.6 µM (inactive); with SNB-19, 27.4 µM (inactive); in the assay on SNB-75, 15.9 µM (inactive); with SR, 16.1 µM (inactive). Also, the GI50 with T47D is 14.6 µM (inactive); in the assay with UACC-257 it was 19.3 µM (inactive).
Take `C=C1C(=O)O[C@H]2[C@H]3O[C@@H](C[C@@H]12)[C@](C)(O)CCCC(C)=CCC[C@H]3C`: the GI50 with ACHN was 10.1 µM (inactive); in the assay on BT-549, 0.457 µM (active); in the assay with CAKI-1, 10.8 µM (inactive); in the assay on COLO 205, 3.38 µM (inactive); with HCC 2998, 11.1 µM (inactive); in the assay on HCT-15 it was 7.35 µM. Moreover, the GI50 was 14.3 µM (inactive) in the assay with LOX IMVI; 7.26 µM (inactive) with MCF7; 18.1 µM (inactive) in the assay with NCI-H226; 4.36 µM (inactive) in the assay with NCI-H522; 8.2 µM (inactive) in the assay with NCI/ADR-RES; 5.97 µM (inactive) in the assay on OVCAR-8. The GI50 was 12.2 µM (inactive) in the assay on PC-3; 4.91 µM (inactive) in the assay with RXF 393; 8.04 µM (inactive) with SF-268; 16.9 µM (inactive) in the assay on SNB-19; 10.5 µM (inactive) with SNB-75; 28.1 µM (inactive) in the assay with SR. The GI50 in the assay on T47D was 19.1 µM (inactive); in the assay with UACC-257, 10.3 µM (inactive).
Turning to `CCN(CC)CCO/N=C1\CC[C@H]2[C@@H]3CCc4cc(OC)ccc4[C@H]3CC[C@]12C`, the GI50 in the assay with ACHN is 3.57 µM (inactive); in the assay with BT-549, 4.56 µM (inactive); in the assay with CAKI-1, 0.74 µM (active); in the assay with COLO 205, 1.57 µM (inactive); in the assay on HCC 2998, 1.71 µM (inactive); with HCT-15, 0.489 µM. For the same molecule, the GI50 with LOX IMVI is 0.789 µM (active); with MCF7 it was 3.66 µM (inactive); with NCI-H226, 1.88 µM (inactive); in the assay on NCI-H522, 2.52 µM (inactive); in the assay on NCI/ADR-RES, 5.41 µM (inactive); with OVCAR-8, 2.6 µM (inactive). In addition, the GI50 is 2.64 µM (inactive) in the assay with PC-3; 1.6 µM (inactive) with RXF 393; 2.07 µM (inactive) in the assay on SF-268; 8.38 µM (inactive) in the assay with SNB-19; 2.44 µM (inactive) in the assay on SNB-75; 1.49 µM (inactive) with SR. The GI50 in the assay on T47D was 2.79 µM (inactive); in the assay with UACC-257, 0.859 µM (active).
